Assay results as given in ChEMBL document CHEMBL5625202, “Synthesis, characterization and anti-breast cancer activities of stachydrine derivatives” (Eur J Med Chem, 2023).
Active and inactive are the calls of the source. The rule behind the calls is not given here.

Experiments:
4T1 [1] = assay: Induction of apoptosis in mouse 4T1 cells assessed as apoptotic rate at 2500 micromol/L incubated for 24 hrs by Annexin-V/PI staining based flow cytometry relative to control; type: functional; conditions: dose 2500 µmol/L, at 2500 µM
[2] = Toxicity in BALB/c mouse implanted with mouse 4T1 cells assessed as change in liver histopathology at 0.2 mmol/Kg, po administered once every day for 14 days; type: organism-based; conditions: in vivo, 336 h, time 14 day
[3] = Toxicity in BALB/c mouse implanted with mouse 4T1 cells assessed as increase in ALT level at 0.2 mmol/Kg, po administered once every day for 14 days by routine blood analysis; type: organism-based; conditions: in vivo, 336 h, time 14 day
4T1 [4] = assay: Induction of apoptosis in mouse 4T1 cells assessed as increase in Bax expression at 5 mM incubated for 24 hrs by Western blot analysis; type: functional, cell-based
4T1 [5] = assay: Induction of apoptosis in mouse 4T1 cells assessed as apoptotic rate at 5000 micromol/L incubated for 24 hrs by Annexin-V/PI staining based flow cytometry relative to control; type: functional; conditions: dose 5000 µmol/L, at 5000 µM
4T1 [6] = assay: Inhibition of cell migration in mouse 4T1 cells assessed as reduction in wound healing incubated for 24 hrs by microscopic analysis; type: functional, cell-based
4T1 [7] = assay: Antitumor activity against mouse 4T1 cells implanted in BALB/c mouse assessed as tumor cell shrinkage at 0.2 mmol/Kg, po administered once every day for 14 days by histological staining based analysis; type: functional, organism-based; conditions: time 14.0 day
[8] = Toxicity in BALB/c mouse implanted with mouse 4T1 cells assessed as increase in white blood cells at 0.2 mmol/Kg, po administered once every day for 14 days by routine blood analysis; type: organism-based; conditions: in vivo, 336 h, time 14 day
4T1 [9] = assay: Induction of mitochondrial membrane potential loss in mouse 4T1 cells assessed as red fluorescence at 5000 uM incubated for 24 hrs by JC-1 staining based flow cytometric analysis (Rvb= 87.9%); type: cell-based
[10] = AUC (0 to t) in Sprague-Dawley rat plasma at 10 mg/kg, iv measured upto 6 hrs by LC-MS/MS analysis; type: ADME, organism-based
4T1 [11] = assay: Antitumor activity against mouse 4T1 cells implanted in BALB/c mouse assessed as tumor cell necrosis at 0.2 mmol/Kg, po administered once every day for 14 days by histological staining based analysis; type: functional, organism-based; conditions: time 14.0 day
[12] = Toxicity in BALB/c mouse implanted with mouse 4T1 cells assessed as increase in lymphocytes at 0.2 mmol/Kg, po administered once every day for 14 days by routine blood analysis; type: organism-based; conditions: in vivo, 336 h, time 14 day
4T1 [13] = assay: Induction of apoptosis in mouse 4T1 cells assessed as decrease in Bcl-2 expression at 5 mM incubated for 24 hrs by Western blot analysis; type: functional, cell-based
4T1 [14] = assay: Anticancer activity against mouse 4T1 cells assessed as inhibition of cell growth incubated for 24 hrs by CCK-8 assay; type: functional, cell-based; conditions: 4T1, 24 h
[15] = Tmax in Sprague-Dawley rat plasma at 10 mg/kg, iv measured upto 6 hrs by LC-MS/MS analysis; type: ADME, organism-based
4T1 [16] = assay: Induction of apoptosis in mouse 4T1 cells assessed as apoptotic rate at 10000 micromol/L incubated for 24 hrs by Annexin-V/PI staining based flow cytometry relative to control; type: functional; conditions: dose 10000 µmol/L, at 10000 µM
[17] = Toxicity in BALB/c mouse implanted with mouse 4T1 cells assessed as change in kidney histopathology at 0.2 mmol/Kg, po administered once every day for 14 days; type: organism-based; conditions: in vivo, 336 h, time 14 day
[18] = Half life in Sprague-Dawley rat plasma at 10 mg/kg, iv measured upto 6 hrs by LC-MS/MS analysis; type: ADME, organism-based
[19] = Toxicity in BALB/c mouse implanted with mouse 4T1 cells assessed as effect on CREA level at 0.2 mmol/Kg, po administered once every day for 14 days by routine blood analysis; type: organism-based; conditions: in vivo, 336 h, time 14 day
4T1 [20] = assay: Induction of apoptosis in mouse 4T1 cells assessed as increase in pro-caspase-3 expression at 5 mM incubated for 24 hrs by Western blot analysis; type: functional, cell-based
[21] = Toxicity in BALB/c mouse implanted with mouse 4T1 cells assessed as increase in AST level at 0.2 mmol/Kg, po administered once every day for 14 days by routine blood analysis; type: organism-based; conditions: in vivo, 336 h, time 14 day
[22] = Toxicity in BALB/c mouse implanted with mouse 4T1 cells assessed as change in lung histopathology at 0.2 mmol/Kg, po administered once every day for 14 days; type: organism-based; conditions: in vivo, 336 h, time 14 day
[23] = Toxicity in BALB/c mouse implanted with mouse 4T1 cells assessed as increase in neutrophil granulocytes at 0.2 mmol/Kg, po administered once every day for 14 days by routine blood analysis; type: organism-based; conditions: in vivo, 336 h, time 14 day
[24] = Toxicity in BALB/c mouse implanted with mouse 4T1 cells assessed as body weight loss at 0.2 mmol/Kg, po administered once daily for 14 days; type: organism-based; conditions: in vivo, 336 h, time 14 day
[25] = Toxicity in BALB/c mouse implanted with mouse 4T1 cells assessed as increase in monocytes at 0.2 mmol/Kg, po administered once every day for 14 days by routine blood analysis; type: organism-based; conditions: in vivo, 336 h, time 14 day
[26] = Toxicity in BALB/c mouse implanted with mouse 4T1 cells assessed as effect on BUN level at 0.2 mmol/Kg, po administered once every day for 14 days by routine blood analysis; type: organism-based; conditions: in vivo, 336 h, time 14 day
4T1 [27] = assay: Antitumor activity against mouse 4T1 cells implanted in BALB/c mouse assessed as change in tumor weight at 0.2 mmol/Kg, po administered once every day for 14 days; type: functional, organism-based; conditions: time 14.0 day
[28] = Toxicity in BALB/c mouse implanted with mouse 4T1 cells assessed as splenic edema at 0.2 mmol/Kg, po administered once every day for 14 days; type: organism-based; conditions: in vivo, 336 h, time 14 day
[29] = Toxicity in BALB/c mouse implanted with mouse 4T1 cells assessed as increase in splenic red pulp at 0.2 mmol/Kg, po administered once every day for 14 days; type: organism-based; conditions: in vivo, 336 h, time 14 day
[30] = Toxicity in BALB/c mouse implanted with mouse 4T1 cells assessed as change in heart histopathology at 0.2 mmol/Kg, po administered once every day for 14 days; type: organism-based; conditions: in vivo, 336 h, time 14 day
[31] = Toxicity in BALB/c mouse implanted with mouse 4T1 cells assessed as blurred spleen morphology at 0.2 mmol/Kg, po administered once every day for 14 days; type: organism-based; conditions: in vivo, 336 h, time 14 day
4T1 [32] = assay: Induction of mitochondrial membrane potential loss in mouse 4T1 cells assessed as green fluorescence at 5000 uM incubated for 24 hrs by JC-1 staining based flow cytometric analysis (reference value: 11.7%); type: cell-based
[33] = Stability of the compound in Sprague-Dawley rat plasma at 10 mg/kg, po measured after 6 hrs by LC-MS/MS analysis; type: ADME, organism-based; conditions: in vivo
[34] = Oral bioavailability in Sprague-Dawley rat at 10 mg/kg measured upto 6 hrs by LC-MS/MS analysis; type: ADME, organism-based; conditions: in vivo
4T1 [35] = assay: Induction of apoptosis in mouse 4T1 cells assessed as increase in cleaved caspase-3 expression at 5 mM incubated for 24 hrs by Western blot analysis; type: functional, cell-based
[36] = Toxicity in BALB/c mouse implanted with mouse 4T1 cells assessed as reduction in spleen index at 0.2 mmol/Kg, po administered once every day for 14 days relative to control; type: organism-based; conditions: in vivo, 336 h, time 14 day
4T1 [37] = assay: Antitumor activity against mouse 4T1 cells implanted in BALB/c mouse assessed as tumor growth inhibition at 0.2 mmol/Kg, po administered once every day for 14 days relative to control; type: functional; conditions: 4T1, 336 h, time 14 day, read-out: TGI
[38] = Cmax in Sprague-Dawley rat plasma at 10 mg/kg, iv measured upto 6 hrs by LC-MS/MS analysis; type: ADME, organism-based

AUC(0-t) at 6 h [10]: 18500 ng·h/mL | IC50 (4T1 [14]): 39 mM | Tmax [15]: 1.02 min | half-life [18]: 69.6 min | Stability [33]: Unstable | bioavailability [34]: 100% | Cmax [38]: 94.6 µg/mL
SMILES: C[N+]1(C)CCCC1C(=O)[O-] (stereo not drawn)
Activity (4T1 [1]): 20.38% | Activity [2]: Non-Toxic | Activity [3]: Toxic | Activity (4T1 [4]): Active | Activity (4T1 [5]): 28.09% | inhibition (4T1 [6]): Dose-Dependent Effect | Activity (4T1 [7]): Active | Activity [8]: Toxic | Activity (4T1 [9]): 70.4% | Activity (4T1 [11]): Active | Activity [12]: Toxic | Activity (4T1 [13]): Active | Activity (4T1 [16]): 32.47% | Activity [17]: Non-Toxic | Activity [19]: Non-Toxic | Activity (4T1 [20]): inactive | Activity [21]: Toxic | Activity [22]: Non-Toxic | Activity [23]: Toxic | Activity [24]: Toxic | Activity [25]: Toxic | Activity [26]: Non-Toxic | Activity (4T1 [27]): Active | Activity [28]: Toxic | Activity [29]: Toxic | Activity [30]: Non-Toxic | Activity [31]: Toxic | Activity (4T1 [32]): 29.6% | Activity (4T1 [35]): inactive | Activity [36]: Toxic | inhibition in vivo at 200 µmol/kg (4T1 [37]): 3.89%
